Reference: the NIST ThermoML archive (doi:10.1021/je3009649)

Conditions: Liquid, Ebulliometric method (Recirculating still)

CCNCC [diethylamine]
Conditions | vapor or sublimation pressure [kPa]
294.7 K | 26.66
299.5 K | 33.33
307.6 K | 46.66
316.7 K | 66.66
323.9 K | 86.66
328.3 K | 101.33

C1CCNC1 [pyrrolidine]
Conditions | vapor or sublimation pressure [kPa]
316.9 K | 19.99
323.4 K | 26.66
329 K | 33.33
337.6 K | 46.66
347.5 K | 66.66
354.9 K | 86.66
359.4 K | 101.33

CCCCN [1-butanamine]
Conditions | vapor or sublimation pressure [kPa]
308.3 K | 19.99
314.7 K | 26.66
319.9 K | 33.33
328.2 K | 46.66
334.8 K | 59.99
337.9 K | 66.66
345.1 K | 86.66
350 K | 101.33
